The record followed here is US12624068B2, “Exon skipping by peptide nucleic acid derivatives” (OliPass Corporation, priority 2016, dated 2026).

[C(1O2)] = modified PNA monomer acting as cytosine, C(pOq) type, 1O2; [A(5)] = modified PNA monomer acting as adenine, A(p) type, p=5; [A(6)] = modified PNA monomer acting as adenine, A(p) type, p=6; [G(5)] = modified PNA monomer acting as guanine, G(p) type, p=5; {Fethoc} = N-terminal Fethoc cap; {NH2} = C-terminal amide

Series [1] relates to 10-mer complementary DNA. Nature of the series: Tm between PNA derivatives and 10-mer complementary DNA (N- or C-terminal). Type of series: binding. The settings on record: uncorrected. The procedure, abridged: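 Tm read by UV at 260 nm for duplexes formed by annealing (90 °C for a minute, slow cooling to ambient) of equimolar 4 μM PNA and complementary 10-mer DNA targeting N- or C-terminal, in 10 mM sodium phosphate, 100 mM NaCl, pH 7.16.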

Series [2] relates to rat SNAP25 pre-mRNA. Nature of the series: SNAP25 nested PCR for exon skipping in PC12 cells. Type of series: cell-based. The protocol: PC12 cells were maintained in RPMI 1640 medium supplemented with 5% FBS, 10% horse serum, 1% streptomycin/penicillin, 1% L-glutamine, and 1% sodium pyruvate under 5% CO2 atmosphere at 37° C. Cells grown in 60 mm culture dish containing 5 mL culture medium were treated with “SNAP-ASO 3” at 0 (negative control), 10, 100 or 1,000 zM. [RNA Extraction & cDNA Synthesis by One-step PCR] Following an incubation with “SNAP-ASO 3” for 42 hours, the cells were treated with 100 μg/mL cycloheximide for another 6 hours in order to freeze the ribosomal translation. Then total RNA was extracted using “Universal RNA Extraction Kit” (Cat. Number 9767, Takara) according to the manufacturer's instructions. […] NO: 126); and SNAP-exon 14_reverse: (5'→3') […] [Nested PCR Amplification] […] NO: 128); SNAP-exon 14n_reverse: (5'→3') […] [Identification of Exon Skipping Products] The PCR products were subjected to electrophoretic separation on a 2% agarose gel. The bands of target size were collected and analyzed by Sanger Sequencing.

Series [3] concerns full-length SNAP25 mRNA. Nature of the series: SNAP25 nested qPCR in PC12 cells. In kind it is cell-based, rat. How it is done:
[Cell Culture & ASO Treatment] PC12 cells grown in 60 mm culture dish containing 5 mL culture medium were treated with “SNAP-ASO 3” at 0 (negative control), 10, 100 or 1,000 zM. (2 culture dishes per ASO concentration) [RNA Extraction & cDNA Synthesis by One-step RT-PCR] Following an incubation with “SNAP-ASO 3” for 42 hours, the cells were treated 100 μg/mL cycloheximide for another 6 hours to freeze the ribosomal translation. Then total RNA was extracted from cells using “Universal RNA Extraction Kit” (Cat. Number 9767, Takara) according to the manufacturer's instructions. […] NO: 130); and SNAP-exon 14_reverse: (5'→3') […] [Nested qPCR Amplification] […] NO: 132); and SNAP-exon 8q_reverse: (5'→3') […] The qPCR reaction was followed with a Taqman probe of [(5'→3') 5,6-[…] NO: 134)] targeting the junction of exon 7 and exon 8 in order to quantify the full-length SNAP25 mRNA.
(Real-time PCR tracks product formation cycle by cycle.)

Series [4] deals with full-length human SNAP25 mRNA. Nature of the series: SNAP25 qPCR in SiMa cells. In kind it is cell-based. The settings on record: 100 aM. How it is done: [Cell Culture & ASO Treatment] SiMa cells were grown in 60 mm culture dish containing 5 mL culture medium, and were treated with “SNAP-ASO 3” at 0 zM (negative control), 1 zM, 10 zM, 100 zM or 1 aM, 10 aM, or 100 aM. (2 culture dishes per ASO concentration) [RNA Extraction & cDNA Synthesis] Total RNA was extracted from cells using “RNeasy Mini Kit” (Cat. Number 74106, Qiagen) according to the manufacturer's instructions. […] [qPCR Amplification] The PCR reactions were monitored with a Taqman probe [(5' 3') 56-[…] NO: 137)] targeting the junction of exon 6 and exon 7 against a set of exon-specific primers [SNAP-exon 6_forward: (5'→3') […] NO: 138); and SNAP-exon 8_reverse(2): (5'→3') […] NO: 139)].

Series [5] has as its system mdx mice. Nature of the series: Unscheduled death, sacrifice or lymphoma in chronically treated mdx mice. Type of series: in vivo, mouse. The settings on record: DMD-ASO 1 50 pmole/Kg, DMD-ASO 2 or DMD-ASO 6 10 pmole/Kg, subcutaneous 2× per week, 66 weeks. The source says: [Grouping & ASO Treatment] Male mdx mice (7 weeks old) were randomly assigned to 4 groups of 0 (mdx negative control), 10, 50, and 200 pmole/Kg “DMD-ASO 1” based on individual grip strength scores by grip test. (N=12 per group) A satellite group of 12 male C57BL/6 mice (7 weeks old) was included in this study as the wild type negative control group for the full-length dystrophin expression level.
The 50 and 200 pmole/Kg group subcutaneously received “DMD-ASO 1” as dissolved in PBS, 2× per week until the final sacrifice in Week 43. In the meantime, the 10 pmole/Kg group subcutaneously received “DMD-ASO 1” initially 2× per week during Week 0 to 8, and 3× per week afterwards to increase the ASO exposure.
[Miscellaneous Findings] There were three cases of unscheduled sacrifice or death (Weeks 26, 39 and 43) in the mdx negative control group due to a large mass of muscular lymphoma developed most likely by chronic muscular inflammation.
“DMD-ASO 1”, “DMD-ASO 2” and “DMD-ASO 6” were evaluated for their physiological effects in male mdx mice by long term subcutaneous administration. In this evaluation the animals were not subjected to physical tests requiring muscular stress in order to keep the transcription of the dystrophin gene undisturbed by excessive muscular stimulation.
[Animals & Grouping] Male mdx mice (6 weeks old) were randomly assigned to 4 groups of the mdx negative control (no ASO treatment), “DMD-ASO 1” 50 pmole/Kg, “DMD-ASO 2” […], and “DMD-ASO 6” […] based on the body weight. (N=12-13 per group) 12 male C57BL/6 mice (6 weeks old) were adopted as the wild type (WT) negative control group.
[Injection Solutions & ASO Treatment] Aqueous mother stock solutions of the ASOs were serially diluted in PBS to prepare the injection solutions of 25 nM “DMD-ASO 1” for 50 pmole/Kg “DMD-ASO 1”, 5 nM “DMD-ASO 2” for “DMD-ASO 2” 10 pmole/Kg, and 5 nM “DMD-ASO 6” for “DMD-ASO 6” 10 pmole/Kg. The animals were subcutaneously administered with the injection solutions at 2 mL/Kg, 2× per week.

The subject of series [6] is mdx mice. Nature of the series: Walking distance on tread mill in mdx mice. The conditions noted are these: first 30 weeks, injection solutions without Tween 80. Type of series: in vivo, mouse. The protocol: “DMD-ASO 2” was chronically administered to mdx mice to evaluate its ability to improve muscle function by the walking distance on tread mill, and to inhibit the muscle degradation by the serum levels of creatine kinase (CK) and myoglobin.
[Animals & Grouping] Male mdx mice (6 weeks old) were randomly assigned to three groups of the mdx negative control (no ASO treatment), “DMD-ASO 2” 10 pmole/Kg, and “DMD-ASO 2” […] based on the body weight. (N=16 per group) 12 male C57BL/6 mice (6 weeks old) were adopted as the wild type (WT) negative control group.
[Injection Solutions & ASO Treatment] An aqueous mother stock solution of “DMD-ASO 2” was diluted either in PBS or in PBS supplemented with 0.1% Tween 80 to prepare injection solutions of […] “DMD-ASO 2” for 10 pmole/Kg and 30 pmole/Kg “DMD-ASO 2”, respectively. Supplementation of PBS injection solution with 0.1% Tween 80 was considered to be necessary to prevent the ASO molecules from sticking to plastic injection vials, pipette tips, and syringes.
[Walking Distance on Tread Mill] During the first 30 weeks post grouping, the animals were administered with the injection solutions without Tween 80 2× per week at 2 mL/Kg. Starting from Week 7, the animals were subjected to walking on a tread mill (Model #LE8710, PanLab) on a weekly basis. […]

The test system of series [7] is serum creatine kinase (CK). Nature of the series: Serum creatine kinase level in mdx mice. Type of series: in vivo. The settings on record: Week 48. The protocol: (§1) [Terminal Sacrifice] In Week 48, the animals were subjected to terminal sacrifice for blood sampling. The blood samples were analyzed for the serum level of CK (Creatine Kinase Activity Assay Kit, Cat. Number ab155901, Abcam) and myoglobin (Myoglobin ELISA Kit, Cat. Number ab210965, Abcam) to assess the degree of muscle degradation according to the manufacturer's instructions. Muscle tissues were analyzed by western blot for the full-length dystrophin.
(§2) [Terminal Sacrifice] All the survived animals were sacrificed for blood sampling in Week 66 post the grouping. The blood samples were subjected to ELISA assays for serum creatine kinase (CK) and serum myoglobin as described in “DMD Example 6”.

Series [8] concerns serum myoglobin. The experiment in a line: Serum myoglobin level in mdx mice. In kind it is in vivo. The protocol:
as §1, §2

Series [9] has as its system full-length dystrophin. Nature of the series: Dystrophin western blot in triceps of mdx mice. In kind it is in vivo. The conditions noted are these: Week 48. The protocol: [Full-length Dystrophin Expression in Triceps by Western Blot] Following homogenization at liquid nitrogen temperature, muscle (triceps) samples were subjected to lysis in RIPA buffer supplemented with 1% SDS. The protein concentration in each lysate was quantified by BCA assay against the BSA standard. […] of protein of each lysate was subjected to electrophoretic separation on an 8% PAGE gel. Then the PVDF membrane was probed with a C-terminal targeting dystrophin antibody (Cat. Number ab154168, Abcam).
On the technique in general: A western blot detects proteins with antibodies after separation by electrophoresis.

With “Fethoc-TG(5)T-TA(6)C-C(1O2)CT-GG(5)G-A(5)T-NH2 (antisense TGTTACCCTGGGAT; all peptide nucleic acid (PNA), [G(5)] at 2, 11, [A(6)] at 5, [C(1O2)] at 7, [A(5)] at 13, 5' {Fethoc}, 3' {NH2}; peptide nucleic acid written N to C) [SNAP-ASO 3]”, the “Tm Value, 10-mer DNA against C-Terminal” value in [1] turned out to be 88.7 °C. Further, the “Tm Value, 10-mer DNA against N-Terminal” value in [1] is 77.3 °C. In [2] (PC12 cells, 10, 100 or 1,000 zM), the “intensity of the full-length SNAP25 mRNA by nested PCR” value is recorded as “decreased most in the cells treated with 10 zM”. The “SNAP25 exon skipping by nested PCR” value in [2] (PC12 cells, 10 zM, 42 hours then cycloheximide 6 hours) is reported as “yielded a faint PCR band assignable to the skipping of exons 5-7”. The “decrease of full-length SNAP25 mRNA level (qPCR)” value in series [3] (PC12 cells, 10 zM) is roughly 50%; in [3] (PC12 cells, 100 zM), 20%; in [3] (PC12 cells, 1,000 zM), “slightly higher than the level of the cells without ASO treatment”. In addition, the “inhibition of full-length human SNAP25 mRNA level (qPCR)” value in series [4] was 40%.
Consider “Fethoc-TTG(6)CA(5)G-AG(6)C-C(1O2)TC-AA(5)A-A(5)T-NH2 (antisense TTGCAGAGCCTCAAAAT; Fethoc N-cap, C-terminal amide, chemistry not fully specified) [DMD-ASO 2]”, for which the “premature deaths (unscheduled death or sacrifice)” value in series [5] was “one death in Week 56 and another in Week 62”. Moreover, the “walking distance on tread mill compared to the mdx negative control group” value in series [6] is given as “failed to show any significant improvements”. Also, the figures for the “serum CK level smaller than the mdx negative control group by” value in series [7] (10 pmole/Kg) and in series [7] (30 pmole/Kg) were 58% and 38%, respectively. Besides, the “serum myoglobin level smaller than the mdx negative control group by” value in [8] (10 pmole/Kg, Week 48) is listed as 67%; in [8] (30 pmole/Kg, Week 48), 58%; in series [8] (DMD-ASO 1 50 pmole/Kg, DMD-ASO 2 or DMD-ASO 6 10 pmole/Kg, 2× per week, Week 66) it was 49%. Also, the “130K dystrophin band intensity (western blot, triceps)” value in series [9] (10 pmole/Kg) was “considerably stronger”. In [9] (10 and 30 pmole/Kg), the “117K dystrophin band (western blot, triceps)” value is “markedly stronger”.
